Values joined by “and” are separate entries in the source; they are usually repeats but may differ in a detail not shown here. Identical values can stand only once.
Test system: Swiss mice, Sarcoma 180 sc, mean tumor weight T/C
Assay: NCI In Vivo Anticancer Drug Screen. Data for tumor model Sarcoma 180 (subcutaneous) in Swiss mice
Conditions: endpoint: mean tumor weight, higher = larger tumour
How it was run: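 Tumor-bearing mice, transplantable tumor; readout survival or tumor size; result = T/C, treated vs vehicle control.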

[1] = dose: 10.0 mg/kg/injection, schedule: Q01DX007 (ip), vehicle: saline
[2] = dose: 4.0 mg/kg/injection, schedule: Q01DX007 (ip), vehicle: carboxymethylcellulose (CMC)
[3] = dose: 44.0 mg/kg/injection, schedule: Q01DX007 (ip), vehicle: water
[4] = dose: 66.0 mg/kg/injection, schedule: Q01DX007 (ip), vehicle: water
[5] = dose: 100.0 mg/kg/injection, schedule: Q01DX007 (ip), vehicle: water

## NC(Cc1cc(I)c(Oc2ccc(O)c(I)c2)c(I)c1)C(=O)O (stereo unspecified)
dose: 0.1 micrograms/kg/injection, schedule: Q01DX007 (sc), vehicle: steriod suspending solution
  T/C: 103 % of control
dose: 1.0 micrograms/kg/injection, schedule: Q01DX007 (sc), vehicle: steriod suspending solution
  T/C: 95 % of control
dose: 10.0 micrograms/kg/injection, schedule: Q01DX007 (sc), vehicle: steriod suspending solution
  T/C: 156 % of control

## CN1CC2CC(C1)c1cccc(=O)n1C2 (stereo unspecified)
dose: 6.6 mg/kg/injection, schedule: Q01DX007 (ip), vehicle: saline
  T/C: 111 % of control
[1]
  T/C: 49 % of control
dose: 15.0 mg/kg/injection, schedule: Q01DX007 (ip), vehicle: saline
  T/C: 113 % of control
dose: 22.0 mg/kg/injection, schedule: Q01DX007 (ip), vehicle: saline
  T/C: 74 % of control

## O=c1[nH]c(=S)c2[nH]c(=O)[nH]c2[nH]1
dose: 50.0 mg/kg/injection, schedule: Q#A X014 (ip), vehicle: methylcellulose (MC)
  T/C: 94 % of control
dose: 100.0 mg/kg/injection, schedule: Q#A X014 (ip), vehicle: methylcellulose (MC)
  T/C: 73 % of control
dose: 200.0 mg/kg/injection, schedule: Q#A X014 (ip), vehicle: methylcellulose (MC)
  T/C: 101 % of control

## CC(C)[C@]1(O)CC[C@H]2[C@@H]3CCc4cc(O)ccc4[C@H]3CC[C@@]21C
dose: 2.5 mg/kg/injection, schedule: Q01DX007 (sc), vehicle: steriod suspending solution
  T/C: 92 % of control
dose: 5.0 mg/kg/injection, schedule: Q01DX007 (sc), vehicle: steriod suspending solution
  T/C: 60 % of control
dose: 10.0 mg/kg/injection, schedule: Q01DX007 (sc), vehicle: steriod suspending solution
  T/C: 95 % of control

## CCCCNP(=O)(N1CC1C)N1CC1C (stereo unspecified)
dose: 7.0 mg/kg/injection, schedule: Q#A X014 (ip), vehicle: saline
  T/C: 64 % of control
dose: 10.5 mg/kg/injection, schedule: Q#A X014 (ip), vehicle: saline
  T/C: 62 % of control
dose: 15.5 mg/kg/injection, schedule: Q#A X014 (ip), vehicle: saline
  T/C: 50 % of control
dose: 23.5 mg/kg/injection, schedule: Q#A X014 (ip), vehicle: saline
  T/C: 39 % of control

## CS(=O)(=O)OCC(O)C(O)COS(C)(=O)=O (stereo unspecified)
dose: 125.0 mg/kg/injection, schedule: Q01DX007 (ip), vehicle: carboxymethylcellulose (CMC)
  T/C: 74 % of control
dose: 250.0 mg/kg/injection, schedule: Q01DX007 (ip), vehicle: carboxymethylcellulose (CMC)
  T/C: 65 % of control
dose: 500.0 mg/kg/injection, schedule: Q01DX007 (ip), vehicle: carboxymethylcellulose (CMC)
  T/C: 51 % of control
dose: 1000.0 mg/kg/injection, schedule: Q01DX007 (ip), vehicle: carboxymethylcellulose (CMC)
  T/C: 45 % of control

## O=C(O)c1cc2ccccc2c(Br)c1O.OC1CCC(Br)C2CCC[N-]C12.[Cu+]
dose: 0.5 mg/kg/injection, schedule: Q01DX007 (ip), vehicle: carboxymethylcellulose (CMC)
  T/C: 74 % of control
dose: 1.0 mg/kg/injection, schedule: Q01DX007 (ip), vehicle: carboxymethylcellulose (CMC)
  T/C: 90 % of control and 95 % of control
dose: 2.0 mg/kg/injection, schedule: Q01DX007 (ip), vehicle: carboxymethylcellulose (CMC)
  T/C: 101 % of control and 109 % of control
[2]
  T/C: 83 % of control

## C=CN1CCCC1=O
dose: 93.0 mg/kg/injection, schedule: Q01DX007 (ip), vehicle: saline
  T/C: 106 % of control
dose: 98.0 mg/kg/injection, schedule: Q01DX007 (ip), vehicle: saline
  T/C: 70 % of control
dose: 100.0 mg/kg/injection, schedule: Q01DX007 (ip), vehicle: saline
  T/C: 57 % of control
dose: 124.0 mg/kg/injection, schedule: Q01DX007 (ip), vehicle: saline
  T/C: 80 % of control
dose: 148.0 mg/kg/injection, schedule: Q01DX007 (ip), vehicle: saline
  T/C: 65 % of control
dose: 150.0 mg/kg/injection, schedule: Q01DX007 (ip), vehicle: saline
  T/C: 78 % of control
dose: 166.0 mg/kg/injection, schedule: Q01DX007 (ip), vehicle: saline
  T/C: 84 % of control
dose: 500.0 mg/kg/injection, schedule: Q01DX007 (ip), vehicle: saline
  T/C: 9 % of control
dose: 750.0 mg/kg/injection, schedule: Q01DX007 (ip), vehicle: saline
  T/C: 20 % of control

## Cc1ccc2[nH]c(C)c(CCN)c2c1
[3]
  T/C: 95 % of control
[4]
  T/C: 119 % of control
[5]
  T/C: 97 % of control

## OC1C(O)C(O)C2(CO2)C(O)C1O (stereo unspecified)
dose: 150.0 mg/kg/injection, schedule: Q#A X014 (ip), vehicle: saline
  T/C: 122 % of control
dose: 300.0 mg/kg/injection, schedule: Q#A X014 (ip), vehicle: saline
  T/C: 79 % of control

## CN(C)[C@@H]1C(=O)C(C(=O)NCc2nc3[nH]cnc(=S)c3[nH]2)=C(O)[C@@]2(O)C(=O)C3=C(O)c4c(O)cccc4[C@@](C)(O)[C@H]3C[C@@H]12
dose: 14.0 mg/kg/injection, schedule: Q01DX007 (ip), vehicle: carboxymethylcellulose (CMC)
  T/C: 71 % of control
dose: 28.0 mg/kg/injection, schedule: Q01DX007 (ip), vehicle: carboxymethylcellulose (CMC)
  T/C: 58 % of control
dose: 56.0 mg/kg/injection, schedule: Q01DX007 (ip), vehicle: carboxymethylcellulose (CMC)
  T/C: 54 % of control and 62 % of control
dose: 224.0 mg/kg/injection, schedule: Q01DX007 (ip), vehicle: carboxymethylcellulose (CMC)
  T/C: 29 % of control

## CNC(C)C(O)c1ccccc1 (stereo unspecified)
dose: 133.0 mg/kg/injection, schedule: Q01DX007 (ip), vehicle: saline
  T/C: 78 % of control
dose: 200.0 mg/kg/injection, schedule: Q01DX007 (ip), vehicle: saline
  T/C: 60 % of control

## Cc1cn(C2OC(CO)C(O)C2O)c(=O)[nH]c1=O (stereo unspecified)
dose: 7.5 mg/kg/injection, schedule: Q01DX007 (ip), vehicle: saline
  T/C: 90 % of control
dose: 30.0 mg/kg/injection, schedule: Q01DX007 (ip), vehicle: saline
  T/C: 115 % of control
dose: 60.0 mg/kg/injection, schedule: Q01DX007 (ip), vehicle: saline
  T/C: 89 % of control
dose: 120.0 mg/kg/injection, schedule: Q01DX007 (ip), vehicle: saline
  T/C: 99 % of control

## C[C@]12CC[C@H](O)CC1=CC[C@@H]1[C@@H]2[C@@H](O)C[C@@]2(C)[C@H]1CC[C@]2(C)O
dose: 25.0 mg/kg/injection, schedule: Q#A X014 (sc), vehicle: steriod suspending solution
  T/C: 87 % of control
dose: 100.0 mg/kg/injection, schedule: Q#A X014 (sc), vehicle: steriod suspending solution
  T/C: 113 % of control
dose: 200.0 mg/kg/injection, schedule: Q#A X014 (sc), vehicle: steriod suspending solution
  T/C: 76 % of control

## Nc1ncnc2c1ncn2C1OC(COCc2ccccc2)C(OCc2ccccc2)C1OCc1ccccc1 (stereo unspecified)
[1]
  T/C: 88 % of control
dose: 20.0 mg/kg/injection, schedule: Q01DX007 (ip), vehicle: saline
  T/C: 86 % of control and 107 % of control
dose: 40.0 mg/kg/injection, schedule: Q01DX007 (ip), vehicle: saline
  T/C: 64 % of control and 87 % of control
dose: 160.0 mg/kg/injection, schedule: Q01DX007 (ip), vehicle: saline
  T/C: 99 % of control

## COC1C(O)CC(=O)OC(C)C/C=C/C=C/C(OC2CCC(N(C)C)C(C)O2)C(C)CC(CC=O)C1OC1OC(C)C(OC2CC(C)(O)C(O)C(C)O2)C(N(C)C)C1O (stereo unspecified)
[3]
  T/C: 124 % of control
[4]
  T/C: 85 % of control
[5]
  T/C: 123 % of control
dose: 150.0 mg/kg/injection, schedule: Q01DX007 (ip), vehicle: water
  T/C: 95 % of control
dose: 225.0 mg/kg/injection, schedule: Q01DX007 (ip), vehicle: water
  T/C: 110 % of control
dose: 337.0 mg/kg/injection, schedule: Q01DX007 (ip), vehicle: water
  T/C: 72 % of control

## Nc1nc(=S)c2ncn(C3OC(COC(=O)c4ccc([N+](=O)[O-])cc4)C(OC(=O)c4ccc([N+](=O)[O-])cc4)C3OC(=O)c3ccc([N+](=O)[O-])cc3)c2[nH]1 (stereo unspecified)
[2]
  T/C: 77 % of control
dose: 7.0 mg/kg/injection, schedule: Q01DX007 (ip), vehicle: carboxymethylcellulose (CMC)
  T/C: 94 % of control
dose: 15.0 mg/kg/injection, schedule: Q01DX007 (ip), vehicle: carboxymethylcellulose (CMC)
  T/C: 93 % of control and 110 % of control
dose: 23.0 mg/kg/injection, schedule: Q01DX007 (ip), vehicle: methylcellulose (MC)
  T/C: 63 % of control
dose: 35.0 mg/kg/injection, schedule: Q01DX007 (ip), vehicle: carboxymethylcellulose (CMC)
  T/C: 37 % of control
dose: 36.0 mg/kg/injection, schedule: Q01DX007 (ip), vehicle: carboxymethylcellulose (CMC)
  T/C: 29 % of control and 32 % of control
dose: 36.0 mg/kg/injection, schedule: Q01DX007 (ip), vehicle: methylcellulose (MC)
  T/C: 77 % of control
dose: 53.0 mg/kg/injection, schedule: Q01DX007 (ip), vehicle: carboxymethylcellulose (CMC)
  T/C: 15 % of control and 30 % of control
dose: 53.0 mg/kg/injection, schedule: Q01DX007 (ip), vehicle: methylcellulose (MC)
  T/C: 56 % of control
dose: 80.0 mg/kg/injection, schedule: Q01DX007 (ip), vehicle: carboxymethylcellulose (CMC)
  T/C: 16 % of control
dose: 80.0 mg/kg/injection, schedule: Q01DX007 (ip), vehicle: methylcellulose (MC)
  T/C: 62 % of control

## Nc1nc(SC2=NCCN2)c2[nH]cnc2n1
dose: 1.25 mg/kg/injection, schedule: Q01DX007 (ip), vehicle: carboxymethylcellulose (CMC)
  T/C: 57 % of control
dose: 2.5 mg/kg/injection, schedule: Q01DX007 (ip), vehicle: carboxymethylcellulose (CMC)
  T/C: 67 % of control
dose: 5.0 mg/kg/injection, schedule: Q01DX007 (ip), vehicle: carboxymethylcellulose (CMC)
  T/C: 57 % of control
